Literature values in patent publication US20230314440A1, “METHOD OF TREATING CANCER” (priority 2020, published 2023).

System: metastatic renal cell carcinoma (RCC)
Settings: patients with metastatic RCC; ESMO 2018, Presentation No. 882P

## COc1cc2nccc(Oc3ccc(NC(=O)C4(C(=O)Nc5ccc(F)cc5)CC4)cc3)c2cc1OC [cabozantinib, N-(4-{[6,7-bis(methyloxy)quinolin-4-yl]oxy}phenyl)-N′-(4-fluorophenyl)cyclopropane-1,1-dicarboxamide]
  effect on systemic tumor immunity: has an impact on systemic tumor immunity
